Reference: patent US11939300B2, “Compounds and methods for treating autoimmune disorders by targeting HLA-DQ2” (ImmunoMolecular Therapeutics, Inc., priority 2020, dated 2024)

System: HLA-DQ2
Test: Inhibition of IL-2 secretion by TCR transductants stimulated by α-gliadin peptides presented by HLA-DQ2 expressing K562 cells (ELISA)
Assay type: cell-based, human
Details: for DQ2 IL2 Maximal % Inhibition: IL-2 secretion, at the concentration given in brackets; for concentration at which the compound exhibited maximum % inhibition (DQ2 IL2): from dose-response curve, figure in brackets in the cell
Procedure: Three commercially available analogues of the DQ2 binding molecules of the invention were tested for their ability to inhibit stimulation of T cell receptor (TCR) transductants in the presence of HLA-DQ2 expressing cells presenting known α-gliadin epitopes.
Using a previously published in vitro assay (Ostrov D, et al. Methyldopa blocks MHC class II binding to disease specific antigens in autoimmune diabetes. J Clin Invest. 2018:128(5)) we measured the ability of these DQ2 binding analogues to inhibit interleukin-2 (IL-2) secretion by TCR transductants stimulated by α-gliadin peptides presented by HLA-DQ2. Individual TCR transductants (recognizing α I-gliadin or α II-gliadin) were cultured with a gliadin peptide plus the small molecule analogues in the presence of HLA-DQ2 expressing K562 cells serving as antigen presenting cells. TCR transductants cultured with no gliadin peptide served as the negative control, and incubation with an anti-CD3 antibody (eBioscience; clone 2C11) served as a positive control for the TCR transductant. Secreted IL-2 in the culture supernatant was measured using a highly sensitive enzyme-linked immunosorbent assay (ELISA). […] Assays for effects on cell viability and for specificity, assayed in the absence of gliadin peptide or in the presence of a stimulating anti-CD3 antibody, were performed. A=71-100%; B=41-70%; C=11-40%; D=0-10%, NT=Not tested.

[1] = TCR transductants (α I- or α II-gliadin) + gliadin peptide + HLA-DQ2 K562 cells
[2] = Table 2, TCR transductants + gliadin peptide + HLA-DQ2 K562 cells

| SMILES | DQ2 IL2 Maximal % Inhibition [1] | concentration at which the compound exhibited maximum % inhibition (DQ2 IL2) [µM] | DQ2 IL2 Maximal % Inhibition [2] | concentration at which the compound exhibited maximum % inhibition (DQ2 IL2) (Table 2) [µM] |
| --- | --- | --- | --- | --- |
| CCc1ccc(C(=O)NC2CCc3nn(CC(N)=O)c(=O)cc3C2)cc1 (stereo not shown) [Compound 38] | A (A=71-100%) | 200 | – | – |
| CCn1nc2c(cc1=O)CC(NC(=O)c1ccc(C(C)C)cc1)CC2 (stereo not shown) [Compound 40] | B (B=41-70%) | 200 | – | – |
| CCCn1nc2c(cc1=O)CC(NC(=O)c1ccc(C(C)C)cc1)CC2 (stereo not shown) [Compound 41] | A (A=71-100%) | 200 | – | – |
| CNC(=O)Cn1nc2c(cc1=O)CC(NC(=O)c1ccc(C(C)C)cc1)CC2 (stereo not shown) [Compound 42] | A (A=71-100%) | 200 | – | – |
| CC(C)c1ccc(C(=O)NC2CCc3nn(CC(=O)O)c(=O)cc3C2)cc1 (stereo not shown) [Compound 43] | A (A=71-100%) | 200 | – | – |
| CC(C)c1ccc(C(=O)NC2CCc3nn(C(C)C)c(=O)cc3C2)cc1 (stereo not shown) [Compound 44] | A (A=71-100%) | 200 | – | – |
| CC(C)c1ccc(C(=O)NC2CCc3nn(CC4CC4)c(=O)cc3C2)cc1 (stereo not shown) [Compound 45] | A (A=71-100%) | 200 | – | – |
| CCCCn1nc2c(cc1=O)CC(NC(=O)c1ccc(C(C)C)cc1)CC2 (stereo not shown) [Compound 46] | B (B=41-70%) | 200 | – | – |
| CC(C)c1ccc(C(=O)NC2CCc3nn(CC4CCC4)c(=O)cc3C2)cc1 (stereo not shown) [Compound 48] | A (A=71-100%) | 100 | – | – |
| CC(C)c1ccc(C(=O)NC2CCc3nn(CC4CCCCC4)c(=O)cc3C2)cc1 (stereo not shown) [Compound 49] | A (A=71-100%) | 200 | – | – |
| CC(C)c1ccc(C(=O)NC2CCc3nn(Cc4ccccc4)c(=O)cc3C2)cc1 (stereo not shown) [Compound 50] | A (A=71-100%) | 200 | – | – |
| COCCn1nc2c(cc1=O)CC(NC(=O)c1ccc(C(C)C)cc1)CC2 (stereo not shown) [Compound 51] | B (B=41-70%) | 200 | – | – |
| CC(C)c1ccc(C(=O)NC2CCc3nn(C4CC4)c(=O)cc3C2)cc1 (stereo not shown) [Compound 53] | A (A=71-100%) | 200 | – | – |
| CC(C)c1ccc(C(=O)NC2CCc3nn(C4CCCCC4)c(=O)cc3C2)cc1 (stereo not shown) [Compound 54] | A (A=71-100%) | 200 | – | – |
| CC(C)c1ccc(C(=O)NC2CCc3nn(C4CCOCC4)c(=O)cc3C2)cc1 (stereo not shown) [Compound 55] | A (A=71-100%) | 200 | – | – |
| CC(C)c1ccc(C(=O)NC2CCc3nn(C4CCC4)c(=O)cc3C2)cc1 (stereo not shown) [Compound 56] | A (A=71-100%) | 200 | – | – |
| CC(C)c1ccc(C(=O)NC2CCc3nn(CC(F)(F)F)c(=O)cc3C2)cc1 (stereo not shown) [Compound 57, 4-isopropyl-N-(3-oxo-2-(2,2,2-trifluoroethyl)-2,3,5,6,7,8-hexahydrocinnolin-6-yl)benzamide] | A (A=71-100%) | 200 | – | – |
| CC(C)c1ccc(C(=O)NC2CCc3nn(CC(C)(C)O)c(=O)cc3C2)cc1 (stereo not shown) [Compound 58] | A (A=71-100%) | 200 | – | – |
| CC(C)c1ccc(C(=O)NC2CCc3nn(C4CCCC4)c(=O)cc3C2)cc1 (stereo not shown) [Compound 59] | A (A=71-100%) | 200 | – | – |
| CCc1ccc(C(=O)NC2CCc3n[nH]c(=O)cc3C2)cc1 (stereo not shown) [Compound 60] | – | – | A (A=71-100%) | 200 |
| Cn1nc2c(cc1=O)CC(NC(=O)c1ccc3ccccc3n1)CC2 (stereo not shown) [Compound 61] | – | – | A (A=71-100%) | 200 |
| CC(C)Oc1ccc(C(=O)NC2CCc3nn(C)c(=O)cc3C2)cc1 (stereo not shown) [Compound 62] | – | – | A (A=71-100%) | 200 |
| Cn1nc2c(cc1=O)CC(NC(=O)c1cccc(C(F)(F)F)c1)CC2 (stereo not shown) [Compound 63] | – | – | A (A=71-100%) | 200 |
